Where “and” joins values, the source holds several entries; their conditions need not be identical. Equal values may be shown once. Read-outs that look alike come from different tables or passages of the source.
How the values were obtained:
B10-mdx mice [1] = assay: Femur bone density by micro-CT (Study 2); format: in vivo, mouse; conditions: for bone density measured by microCT: 4 months of treatment
Method: To evaluate the similarities and differences of potential side effects of the three corticosteroids, plasma/blood were evaluated ex vivo for their effects on endogenous corticosteroid after 14 days of dosing (Study 1) and glucose levels (Study 1) after 11 days of dosing. Bone formation was measured by evaluating osteocalcin levels in Study 1 after 14 days. Bone density was measured by micro-computed tomography (micro-CT) in Study 2 after 4 months.
Study 2: The goal of the second study was to evaluate corticosteroid side effects and efficacy in a longer study (4 months). After 28 days of dosing, mice were tested for depression-like behavior using a measure of corticosteroid-induced depression (FST followed by TST). Muscle function was tested via grip strength. Tests for depression and for grip-strength were done in a blinded manner. After 4 months, mice were euthanized, and tissues were collected. Bone from whole left leg was collected for micro-CT analysis. The number of animals per group was as follows: WT, n = 16; B10-mdx, n = 15; corticosteroid-treated groups, n = 8–10.
Micro-CT analysis was performed by the Rutgers University Molecular Imaging Center (RUMIC). Briefly, skeletons were harvested at trial endpoint and stored in 70% ethanol and transferred for imaging analysis. Hindlimbs were soaked in isotonic saline solution overnight to rehydrate before imaging. […] The rotation step was 0.4° through 180° total rotation, and three images were averaged at each rotation step. Each distal femur was scanned separately, and images were saved. Scan images were reconstructed using Skyscan nRecon software.

IL-12 = assay: LPS-induced IL-12 in cultured BMDM; format: cell-based; conditions: Mus musculus, corticosteroid overnight, LPS 10 ng/ml 3 h
From the text: (§1) The immunosuppressive activity of corticosteroids is in part due to their inhibition of NF-κB-induced cytokines including TNF-α, IL-6, and IL-12. Furthermore, expression of some inflammatory-mediated proteins such as STAT1 is mediated via GREs, and not the NF-κB pathway. We therefore expanded murine bone marrow-derived macrophages (BMDM) in vitro, and after 5 days of culture tested the relative efficacy of different corticosteroids to prevent LPS-induced cytokine secretion.
(§2) BMDM mouse bone marrow derived macrophage (mBMDM) cultures were generated from the femur and tibia from two 7–11-week-old C57BL/6 mice. Briefly, bone marrow cells were carefully flushed out, suspended in ice-cold PBS, and spun down. After the supernatant was removed, the pelleted cells were resuspended in 2 ml (ammonium-Chloride-Potassium) ACK lysis buffer (Thermo Fisher, Cat# A1049201) and incubated for 3–4 min, followed by 14 ml ice-cold PBS, and then spun down. The pelleted cells were resuspended in 43 ml complete media [Roswell Park Memorial Institute (RPMI 1640), Gibco, Cat# 11875-093; 10% heat-inactivated fetal bovine serum (HiFBS), HyClone, Cat# SH30406.02; 1% 2 mM L-glutamine; 1% penicillin-streptomycin, Sigma, Cat# P4333-100ML; 1% MEM NEAA, Gibco, Cat# 11140-050; 1% Na Pyruvate, Gibco, Cat# 11360-070; 55 μM 2-Mercaptoethanol, Gibco, Cat#21985-023]. A total of 25 ng/ml M-CSF was added to the culture. Cells were dispensed as 200 μl per well into a 96-well tissue culture plate and incubated at 37°C, 5% CO2 for 4 days. On Day 5, media were removed and 100 μl fresh complete media containing M-CSF were added. Corticosteroids were added and cells incubated at 37°C and 5% CO2 overnight. Untreated cells were incubated with media. On Day 6, 10 ng/ml of lipopolysaccharide (LPS) was added and incubated at 37°C and 5% CO2 for 3 h followed by removal of cell media for cytokine analysis. Cytokines were measured using a Meso Scale Discovery (MSD), V-PLEX kit (V-PLEX Cat# K-15048D, www.mesoscale.com).

IFN-γ = assay: LPS-induced IFN-γ in cultured BMDM; format: cell-based; conditions: Mus musculus, corticosteroid overnight, LPS 10 ng/ml 3 h
From the text: as §1, §2

B10-mdx mice [2] = assay: Diaphragm hydroxyproline assay (Study 2); format: in vivo, mouse; conditions: 4 months
Method: To determine muscle damage in B10-mdx mice and to evaluate the effects of the three corticosteroids on muscle, we used the hydroxyproline assay to measure the collagen content in diaphragm muscle tissue, a measure of muscle damage and fibrosis. […] Levels were reduced in mice treated with any of the three corticosteroids (Fig. 6d).
Diaphragm muscles were dissected, weighed, and stored at −80°. Tissues were cut to avoid the tendon(s), and 10 ± 1 mg of tissue was homogenized through sonication. Water and hydrochloric acid (12 M) content were normalized prior to hydrolysis at 120° for 3 h in pressure-tight polypropylene vials. After boiling, the hydrolysates were centrifuged at 10 000 × g for 3 min, and 6-μl triplicates of the hydrolysate were added to clear 96-well plates for evaporation in a 60°C oven overnight. The following day, a hydroxyproline kit (Sigma, cat #MAK008) was used to determine the hydroxyproline content. In each sample and standard well, 100 μl Chloramine T/Oxidation buffer mixture was added, incubated for 5 min at room temperature, and followed with 100 μl of perchloric acid diluted DMAB concentrate. The plate was sealed and incubated in a 60°C oven for 90 min. The 96-well plates were read using a BioTek Epoch 2 Spectrophotometer at an absorbance of 560 nm.

IL-1β = assay: LPS-induced IL-1β in cultured BMDM; format: cell-based; conditions: Mus musculus, corticosteroid overnight, LPS 10 ng/ml 3 h
From the text: as §1, §2

B10-mdx mice [3] = assay: RNA-sequencing of tissues after 2 weeks of treatment (Study 1); conditions: vs vehicle-treated B10-mdx
[4] = cited from earlier work
[5] = tested on: mineralocorticoid receptor; design: method as in PMID 30745312; conditions: cited from earlier work
[6] = human, 2 mg/kg, ref Conklin et al., Pharmacol Res. 2018
[7] = human, 6 mg/kg, ref Conklin et al., Pharmacol Res. 2018

With `C[C@]12C=CC(=O)C=C1CC[C@@H]1[C@@H]2[C@@H](O)C[C@@]2(C)[C@H]1CC[C@]2(O)C(=O)CO` [Prednisolone] the “bone density in the femur (micro-CT tissue mineral density)” value (B10-mdx mice [1]; 4 months, highest dose) was “significantly reduced bone density”, the EC50 (IL-12) was 8.5 nM and the EC50 (IFN-γ) was 0.5 nM. The “diaphragm hydroxyproline (fibrosis)” value (B10-mdx mice [2]; 5 mg/kg) was “reduced fibrosis”, the EC50 (IL-1β) was 3 nM and the “Number of genes, Quadriceps, Down-regulated” value (B10-mdx mice [3]; 1.2 mg/kg daily) was 3855. For the same compound, the “Number of genes, Quadriceps, No Change” value (B10-mdx mice [3]; 1.2 mg/kg daily) was 8205, the “Number of genes, Quadriceps, Up-regulated” value (B10-mdx mice [3]; 1.2 mg/kg daily) was 4250 and the “Number of genes, Quadriceps, Down-regulated” value (B10-mdx mice [3]; 2.4 mg/kg daily) was 5216. For the same compound, the “Number of genes, Quadriceps, Up-regulated” value (B10-mdx mice [3]; 2.4 mg/kg daily) was 6030, the “Number of genes, Quadriceps, Down-regulated” value (B10-mdx mice [3]; 5 mg/kg daily) was 4173 and the “Number of genes, Quadriceps, No Change” value (B10-mdx mice [3]; 5 mg/kg daily) was 7883. For the same compound, the “Number of genes, Quadriceps, Up-regulated” value (B10-mdx mice [3]; 5 mg/kg daily) was 4254, the “AUC (Day 1)” value ([4]; human adults, 0.35 mg/kg (20 mg/57 kg), AUC0-12, average of two formulations, ref Bashar et al., Dose Response 2018) was 3301 ng·h/mL and the Cmax ([4]; human adults, 0.35 mg/kg (20 mg/57 kg), average of two formulations, ref Bashar et al., Dose Response 2018) was 659 ng/mL. For the same compound, the “effect on mineralocorticoid receptor signaling” value (“effect” below) [5] was “agonist”.

For `C[C@@H]1C[C@H]2[C@@H]3CCC4=CC(=O)C=C[C@]4(C)C3=CC[C@]2(C)[C@@]1(O)C(=O)CO` [Vamorolone], the “bone density measured by microCT” value (B10-mdx mice [1]) was “not reaching significance”, the EC50 (IL-12) was 30 nM and the EC50 (IFN-γ) was 0.8 nM. For the same compound, the “diaphragm hydroxyproline (fibrosis)” value (B10-mdx mice [2]; 45 mg/kg) was “did not reach significance”, the “diaphragm hydroxyproline (fibrosis)” value (B10-mdx mice [2]; 15 and 30 mg/kg) was “reduced fibrosis” and the EC50 (IL-1β) was 32 nM. For the same compound, the “Number of genes, Quadriceps, Down-regulated” value (B10-mdx mice [3]; 15 mg/kg daily) was 3014, the “Number of genes, Quadriceps, No Change” value (B10-mdx mice [3]; 15 mg/kg daily) was 9369 and the “Number of genes, Quadriceps, Up-regulated” value (B10-mdx mice [3]; 15 mg/kg daily) was 3927. For the same compound, the “Number of genes, Whole Brain, Down-regulated” value (B10-mdx mice [3]; 15 mg/kg daily) was 138, the “Number of genes, Whole Brain, No Change” value (B10-mdx mice [3]; 15 mg/kg daily) was 16068 and the “Number of genes, Whole Brain, Up-regulated” value (B10-mdx mice [3]; 15 mg/kg daily) was 104. For the same compound, the “Number of genes, Quadriceps, Down-regulated” value (B10-mdx mice [3]; 30 mg/kg daily) was 3138, the “Number of genes, Quadriceps, No Change” value (B10-mdx mice [3]; 30 mg/kg daily) was 10053 and the “Number of genes, Quadriceps, Up-regulated” value (B10-mdx mice [3]; 30 mg/kg daily) was 3119. The “Number of genes, Whole Brain, Down-regulated” value (B10-mdx mice [3]; 30 mg/kg daily) was 2087, the “Number of genes, Whole Brain, No Change” value (B10-mdx mice [3]; 30 mg/kg daily) was 11760 and the “Number of genes, Whole Brain, Up-regulated” value (B10-mdx mice [3]; 30 mg/kg daily) was 2463. The “Number of genes, Quadriceps, Down-regulated” value (B10-mdx mice [3]; 45 mg/kg daily) was 331, the “Number of genes, Quadriceps, No Change” value (B10-mdx mice [3]; 45 mg/kg daily) was 15364 and the “Number of genes, Quadriceps, Up-regulated” value (B10-mdx mice [3]; 45 mg/kg daily) was 615. The “Number of genes, Whole Brain, Down-regulated” value (B10-mdx mice [3]; 45 mg/kg daily) was 1114, the “Number of genes, Whole Brain, No Change” value (B10-mdx mice [3]; 45 mg/kg daily) was 14218 and the “Number of genes, Whole Brain, Up-regulated” value (B10-mdx mice [3]; 45 mg/kg daily) was 978. For the same compound, the “AUC (Day 1)” value [4, 6] was 761 ng·h/mL, the Cmax [4, 6] was 199 ng/mL and the “AUC (Day 1)” value [4, 7] was 3279 ng·h/mL. For the same compound, the Cmax [4, 7] was 856 ng/mL and the “effect” value [5] was “antagonist”.

For `CC(=O)OCC(=O)[C@@]12N=C(C)O[C@@H]1C[C@H]1[C@@H]3CCC4=CC(=O)C=C[C@]4(C)[C@H]3[C@@H](O)C[C@@]12C` [Deflazacort], the “bone density measured by microCT” value (B10-mdx mice [1]) was “not reaching significance”, the EC50 (IL-12) was 3.6 nM and the EC50 (IFN-γ) was 0.29 nM. The “diaphragm hydroxyproline (fibrosis)” value (B10-mdx mice [2]; 5 and 15 mg/kg) was “reduced fibrosis”, the EC50 (IL-1β) was 1.3 nM and the “Number of genes, Quadriceps, Down-regulated” value (B10-mdx mice [3]; 1.25 mg/kg daily) was 4245. For the same compound, the “Number of genes, Quadriceps, No Change” value (B10-mdx mice [3]; 1.25 mg/kg daily) was 7767, the “Number of genes, Quadriceps, Up-regulated” value (B10-mdx mice [3]; 1.25 mg/kg daily) was 4298 and the “Number of genes, Whole Brain, Down-regulated” value (B10-mdx mice [3]; 1.25 mg/kg daily) was 31. For the same compound, the “Number of genes, Whole Brain, Up-regulated” value (B10-mdx mice [3]; 1.25 mg/kg daily) was 1, the “Number of genes, Quadriceps, Down-regulated” value (B10-mdx mice [3]; 2.5 mg/kg daily) was 3706 and the “Number of genes, Quadriceps, No Change” value (B10-mdx mice [3]; 2.5 mg/kg daily) was 9024. The “Number of genes, Quadriceps, Up-regulated” value (B10-mdx mice [3]; 2.5 mg/kg daily) was 3580, the “Number of genes, Whole Brain, Down-regulated” value (B10-mdx mice [3]; 2.5 mg/kg daily) was 4 and the “Number of genes, Whole Brain, No Change” value (B10-mdx mice [3]; 2.5 mg/kg daily) was 16306. For the same compound, the “Number of genes, Whole Brain, Up-regulated” value (B10-mdx mice [3]; 2.5 mg/kg daily) was 0, the “Number of genes, Quadriceps, Down-regulated” value (B10-mdx mice [3]; 5 mg/kg daily) was 5354 and the “Number of genes, Quadriceps, No Change” value (B10-mdx mice [3]; 5 mg/kg daily) was 4889. For the same compound, the “Number of genes, Quadriceps, Up-regulated” value (B10-mdx mice [3]; 5 mg/kg daily) was 6067, the “Number of genes, Whole Brain, Down-regulated” value (B10-mdx mice [3]; 5 mg/kg daily) was 39 and the “Number of genes, Whole Brain, No Change” value (B10-mdx mice [3]; 5 mg/kg daily) was 16214. For the same compound, the “Number of genes, Whole Brain, Up-regulated” value (B10-mdx mice [3]; 5 mg/kg daily) was 57, the “Number of genes, Quadriceps, Down-regulated” value (B10-mdx mice [3]; 15 mg/kg daily) was 5462 and the “Number of genes, Quadriceps, No Change” value (B10-mdx mice [3]; 15 mg/kg daily) was 5024. For the same compound, the “Number of genes, Quadriceps, Up-regulated” value (B10-mdx mice [3]; 15 mg/kg daily) was 5824, the “Number of genes, Whole Brain, Down-regulated” value (B10-mdx mice [3]; 15 mg/kg daily) was 231 and the “Number of genes, Whole Brain, No Change” value (B10-mdx mice [3]; 15 mg/kg daily) was 15981. The “Number of genes, Whole Brain, Up-regulated” value (B10-mdx mice [3]; 15 mg/kg daily) was 98, the Cmax ([4]; human, 0.9 mg/kg, ref FDA 208684,208685Orig1s000ClinPharmR.pdf) was 329 ng/mL and the “AUC (Day 1)” value ([4]; human, 0.9 mg/kg, ref FDA 208684,208685Orig1s000ClinPharmR.pdf, listed as Emflaza) was 567 ng·h/mL and 630 ng·h/mL. The “effect” value [5] was “no effect”.
